Assay results as given in patent US9199943B2, “2-(poly-substituted aryl)-6-amino-5-halo-4-pyrimidinecarboxylic acids and their use as herbicides” (Dow AgroSciences, LLC., priority 2006, dated 2015).

Tests used:
[1] = system: CHEAL = lambsquarter (Chenopodium album); test: General postemergence herbicidal activity, lambsquarter; assay type: in vivo; conditions: Chenopodium album, post-emergence, 336 h; post-emergent, 140 g ai/ha, visual score after 14 days (0 no injury, 100 complete kill)
Method: Seeds or nutlets of the desired test plant species were planted in Sun Gro MetroMix® 306 planting mixture, which typically has a pH of 6.0 to 6.8 and an organic matter content of about 30 percent, in plastic pots with a surface area of 64 square centimeters. When required to ensure good germination and healthy plants, a fungicide treatment and/or other chemical or physical treatment was applied. The plants were grown for 7-21 days in a greenhouse with an approximate 15 hour photoperiod which was maintained at about 23-29° C. during the day and 22-28° C. during the night. Nutrients and water were added on a regular basis and supplemental lighting was provided with overhead metal halide 1000-Watt lamps as necessary. The plants were employed for testing when they reached the first or second true leaf stage.
A weighed amount, determined by the highest rate to be tested, of each test compound was placed in a 25 mL glass vial and was dissolved in 4 mL of a 97:3 v/v (volume/volume) mixture of acetone and dimethyl sulfoxide (DMSO) to obtain concentrated stock solutions. […] The concentrated stock solutions obtained were diluted with 20 mL of an aqueous mixture containing acetone, water, isopropyl alcohol, DMSO, Atplus 411F crop oil concentrate, and Triton X-155 surfactant in a 48.5:39:10:1.5:1.0:0.02 v/v ratio to obtain spray solutions containing the highest application rates. Additional application rates were obtained by serial dilution of 12 mL of the high rate solution into a solution containing 2 mL of 97:3 v/v (volume/volume) mixture of acetone and dimethyl sulfoxide (DMSO) and 10 mL of an aqueous mixture containing acetone, water, isopropyl alcohol, DMSO, Atplus 411F crop oil concentrate, and Triton X-155 surfactant in a 48.5:39:10:1.5:1.0:0.02 v/v ratio to obtain ½×, ¼×, ⅛× and 1/16× rates of the high rate. Compound requirements are based upon a 12 mL application volume at a rate of 187 L/ha. Formulated compounds were applied to the plant material with an overhead Mandel track sprayer equipped with a 8002E nozzles calibrated to deliver 187 L/ha over an application area of 0.503 square meters at a spray height of 18 inches (43 cm) above the average plant canopy height. Control plants were sprayed in the same manner with the solvent blank.
(§1) The treated plants and control plants were placed in a greenhouse as described above and watered by sub-irrigation to prevent wash-off of the test compounds. After 14 days, the condition of the test plants as compared with that of the untreated plants was determined visually and scored on a scale of 0 to 100 percent where 0 corresponds to no injury and 100 corresponds to complete kill.
By applying the well-accepted probit analysis as described by J. Berkson in Journal of the […], 48, 565 (1953) and by D. Finney in “Probit Analysis” Cambridge University Press (1952), the above data can be used to calculate GR50 and GR80 values, which are defined as growth reduction factors that correspond to the effective dose of herbicide required to kill or control 50 percent or 80 percent, respectively, of a target plant.

LAMPU = Lamium purpureum = test: Postemergence herbicidal activity in cereal crops, Lamium purpureum; assay type: in vivo; conditions: post-emergence, 480 h, post-emergent, after 20-22 days; for pest or weed control at 35 g/ha: 35 g ai/ha; for pest or weed control at 17.5 g/ha: 17.5 g ai/ha; for pest or weed control at 70 g/ha: 70 g ai/ha
Method: Seeds of the desired test plant species were planted in Sun Gro MetroMix® 306 planting mixture, which typically has a pH of 6.0 to 6.8 and an organic matter content of about 30 percent, in plastic pots with a surface area of 103.2 square centimeters. When required to ensure good germination and healthy plants, a fungicide treatment and/or other chemical or physical treatment was applied. The plants were grown for 7-36 days in a greenhouse with an approximate 14 hour photoperiod which was maintained at about 18° C. during the day and 17° C. during the night. Nutrients and water were added on a regular basis and supplemental lighting was provided with overhead metal halide 1000-Watt lamps as necessary. The plants were employed for testing when they reached the second or third true leaf stage.
A weighed amount, determined by the highest rate to be tested, of each test compound was placed in a 25 mL glass vial and was dissolved in 8 mL of a 97:3 v/v mixture of acetone and DMSO to obtain concentrated stock solutions. […] The concentrated stock solutions obtained were diluted with 16 mL of an aqueous mixture containing acetone, water, isopropyl alcohol, DMSO, Agri-dex crop oil concentrate, and Triton X-77 surfactant in a 64.7:26.0:6.7:2.0:0.7:0.01 v/v ratio to obtain spray solutions containing the highest application rates. Additional application rates were obtained by serial dilution of 12 mL of the high rate solution into a solution containing 4 mL of 97:3 v/v mixture of acetone and DMSO and 8 mL of an aqueous mixture containing acetone, water, isopropyl alcohol, DMSO, Agri-dex crop oil concentrate, and Triton X-77 surfactant in a 48.5:39.0:10.0:1.5:1.0:0.02 v/v ratio to obtain ½×, ¼×, ⅛× and 1/16× rates of the high rate. Compound requirements are based upon a 12 mL application volume at a rate of 187 L/ha. Formulated compounds were applied to the plant material with an overhead Mandel track sprayer equipped with a 8002E nozzles calibrated to deliver 187 L/ha over an application area of 0.503 square meters at a spray height of 18 inches (43 cm) above average plant canopy height. Control plants were sprayed in the same manner with the blank.
as §1, with “20-22” for “14”

Structure (SMILES) | pest or weed control at 140 g/ha [1] [%] | pest or weed control at 35 g/ha (LAMPU = Lamium purpureum) [%] | pest or weed control at 17.5 g/ha (LAMPU = Lamium purpureum) [%] | pest or weed control at 70 g/ha (LAMPU = Lamium purpureum) [%]
CCOc1c(Cl)ccc(-c2nc(N)c(Cl)c(C(=O)OC)n2)c1F [Compound 1, 6-amino-5-chloro-2-(4-chloro-3-ethoxy-2-fluorophenyl)-pyrimidine-4-carboxylic acid methyl ester] | 100 | 85 | – | –
COC(=O)c1nc(-c2c(F)cc(Cl)c(OC)c2F)nc(N)c1Cl [Compound 2, 6-amino-5-chloro-2-(4-chloro-2,6-difluoro-3-methoxy-phenyl)pyrimidine-4-carboxylic acid methyl ester] | 100 | 95 | – | –
COC(=O)c1nc(-c2ccc(Cl)c(OC)c2F)nc(N)c1Cl [Compound 3, 6-amino-5-chloro-2-(4-chloro-2-fluoro-3-methoxyphenyl)-pyrimidine-4-carboxylic acid methyl ester] | 100 | – | 99 | –
COC(=O)c1nc(-c2ccc(Cl)c(OC)c2Cl)nc(N)c1Cl [Compound 6, 6-Amino-5-chloro-2-(2,4-dichloro-3-methoxyphenyl)pyrimidine-4-carboxylic acid methyl ester] | 100 | – | – | 99
COC(=O)c1nc(-c2ccc(Cl)c(C(F)F)c2F)nc(N)c1Cl [Compound 7, 6-Amino-5-chloro-2-(4-chloro-3-difluoromethyl-2-fluorophenyl)pyrimidine-4-carboxylic acid methyl ester] | 100 | – | 90 | –
COC(=O)c1nc(-c2ccc(Cl)c(N(C)C)c2F)nc(N)c1Cl [Compound 8, 6-Amino-5-chloro-2-(4-chloro-3-dimethylamino-2-fluorophenyl)pyrimidine-4-carboxylic acid methyl ester] | 100 | 85 | – | –
COC(=O)c1nc(-c2ccc3c(c2F)OCO3)nc(N)c1Cl [Compound 9, 6-Amino-5-chloro-2-(4-fluorobenzo[1,3]dioxol-5-yl)pyrimidine-4-carboxylic acid methyl ester] | 90 | – | – | 100
COC(=O)c1nc(-c2ccc(Cl)c(OCC(F)F)c2F)nc(N)c1Cl [Compound 10, 6-Amino-5-chloro-2-[4-chloro-3-(2,2-difluoroethoxy)-2-fluorophenyl]-pyrimidine-4-carboxylic acid methyl ester] | 85 | – | – | 85
COC(=O)c1nc(-c2ccc(Cl)c(OC)c2F)nc(N)c1Br [Compound 13, 6-amino-5-bromo-2-(4-chloro-2-fluoro-3-methoxyphenyl)-pyrimidine-4-carboxylic acid methyl ester] | 100 | – | 95 | –
